Assay results as given in publication PMC9217908, “Screening of commonly prescribed drugs for effects on the CAT1-mediated transport of L-arginine and arginine derivatives” (Amino Acids, 2022).
Read-outs that look alike come from different tables or passages of the source.

Columns and labels:
Assay in all cases: cell-based
[1] = molecular target: T1, CAT1 (cationic amino acid transporter 1, CAT1/SLC7A1) (Homo sapiens, UniProt P30825); parameters: species or system HEK-CAT1 (HEK293 stably transfected); Inhibition of net CAT1-mediated [3H]-ADMA (1 uM) uptake, 2.5 min, scintillation counting, vector control subtracted; conditions: HEK293, ADMA 1 uM as substrate; for inhibition at 20 µM: read-out: % Inhibition of ADMA uptake at 20 µM; for inhibition at 200 µM: read-out: % Inhibition of ADMA uptake at 200 µM
T1 construct: full-length human transporter stably transfected in HEK cells (HEK-CAT1); net uptake against HEK-VC vector control cells
Description: (§1) Uptake and inhibition assays using HEK-CAT1 and HEK-VC cells and L-arginine, L-homoarginine, and ADMA as substrates were performed using the protocol described (Strobel et al. [2012]; Chafai et al. [2017]). Briefly, after incubation, the supernatant was replaced with transport buffer containing [^3H]- L-arginine for 5 min and 2.5 min for medium containing [^3H]-L-homoarginine or [^3H]-ADMA with or without the test compound. The reference drugs were screened at concentrations of 20 µM (Figs. 1A, 2A, and 3A) and 200 µM (Figs. 1B, 2B, and 3B). […] The net uptake was determined by subtracting the total amount taken up by control cells from the amount taken up by CAT1-expressing cells, which was expressed as a percentage of the amount taken up by the control. To determine the inhibitory effects of the drugs on CAT1-mediated transport of L-arginine, L-homoarginine, or ADMA, the control was measured in the absence of the potential inhibitor. The value for the percent inhibition was calculated as: Inhibition (%) = 100 – (V/V0 ^* 100), where V and V0 are the net uptake rates (uptake into HEK-CAT1 cells—uptake into HEK-VC cells) with and without test drugs, respectively. […] Each bar represents the effect of one compound on CAT1-mediated ADMA (1 μM) uptake as percent inhibition. Data were obtained from at least two independent experiments performed in triplicate (n = 6–9) and each test data from the independent experiment were normalized to the respective control data to get the value of percent inhibition. Negative inhibition values indicate stimulated CAT1-mediated uptake. Data were analyzed using one-way ANOVA and Dunnett’s multiple comparison test with p < 0.05. Bars showing a statistically significant inhibition or transport stimulation are shaded in black

[2] = molecular target: T1, CAT1 (cationic amino acid transporter 1, CAT1/SLC7A1); parameters: species or system HEK-CAT1 (HEK293 stably transfected); Inhibition of net CAT1-mediated [3H]-L-arginine (100 uM) uptake, 5 min, scintillation counting, vector control subtracted; conditions: HEK293, L-arginine 100 uM as substrate; for inhibition at 20 µM: read-out: % Inhibition of L-arginine uptake at 20 µM; for inhibition at 200 µM: read-out: % Inhibition of L-arginine uptake at 200 µM
Description: as §1, with “L-arginine (100” for “ADMA (1”

[3] = molecular target: T1, CAT1 (cationic amino acid transporter 1, CAT1/SLC7A1); parameters: species or system HEK-CAT1 (HEK293 stably transfected); Inhibition of net CAT1-mediated [3H]-L-homoarginine (1 uM) uptake, 2.5 min, scintillation counting, vector control subtracted; conditions: HEK293, L-homoarginine 1 uM as substrate; for inhibition at 20 µM: read-out: % Inhibition of L-homoarginine uptake at 20 µM; for inhibition at 200 µM: read-out: % Inhibition of L-homoarginine uptake at 200 µM
Description: as §1, with “CAT1-mediated L-homoarginine” for “CAT1-mediated ADMA”

T1 sequence (P30825 whole entry): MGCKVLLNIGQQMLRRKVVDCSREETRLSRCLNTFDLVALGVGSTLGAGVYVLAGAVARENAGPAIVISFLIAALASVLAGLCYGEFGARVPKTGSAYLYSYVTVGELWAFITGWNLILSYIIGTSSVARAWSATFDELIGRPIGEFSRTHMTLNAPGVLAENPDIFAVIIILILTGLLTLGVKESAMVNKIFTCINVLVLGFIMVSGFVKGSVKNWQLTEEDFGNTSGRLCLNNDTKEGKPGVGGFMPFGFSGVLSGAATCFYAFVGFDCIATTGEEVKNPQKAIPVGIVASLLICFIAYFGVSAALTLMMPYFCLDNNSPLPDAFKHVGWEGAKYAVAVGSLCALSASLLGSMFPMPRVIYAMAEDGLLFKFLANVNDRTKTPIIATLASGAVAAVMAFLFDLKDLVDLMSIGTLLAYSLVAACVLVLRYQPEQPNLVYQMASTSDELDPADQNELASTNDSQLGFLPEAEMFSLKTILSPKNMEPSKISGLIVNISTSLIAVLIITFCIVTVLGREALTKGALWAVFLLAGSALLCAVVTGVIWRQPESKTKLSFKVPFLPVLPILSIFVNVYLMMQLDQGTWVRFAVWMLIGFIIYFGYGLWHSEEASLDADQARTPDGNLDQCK

Row | Structure (SMILES) | inhibition at 20 µM [1] [%] | inhibition at 200 µM [1] [%] | inhibition at 20 µM [2] [%] | inhibition at 200 µM [2] [%] | inhibition at 20 µM [3] [%] | inhibition at 200 µM [3] [%]
1 | CCCC(CCC)C(=O)O [Valproic acid] | -7.6 ± 4 | -47.5 ± 6 | 12.6 ± 2.5 | -3.1 ± 6.1 | 10.2 ± 1.4 | -9.5 ± 5.1
2 | Cc1cc(=O)n(-c2ccccc2)n1C [Antipyrine] | 1.9 ± 2.5 | -1.2 ± 6.1 | -5.1 ± 7.2 | -12.7 ± 2.5 | -8.2 ± 6 | 12.8 ± 1.4
3 | Cc1ncc([N+](=O)[O-])n1CCO [Metronidazole] | -3.1 ± 2 | -16.6 ± 0.4 | 7.7 ± 1.9 | 2.6 ± 3.7 | -4.7 ± 2 | 0.8 ± 2.2
4 | CC(=O)Nc1nnc(S(N)(=O)=O)s1 [Acetazolamide] | -1.5 ± 0.9 | 9.7 ± 1.9 | -12.8 ± 12.9 | 8.9 ± 3.9 | -10.9 ± 11.9 | 8.8 ± 2.1
5 | COc1ccccc1OCCNCC(O)COc1cccc2[nH]c3ccccc3c12 (stereo not shown) [Carvedilol] | -1.1 ± 3.1 | -7.8 ± 7.1 | -14.1 ± 1.5 | 0.2 ± 3.5 | -11.2 ± 0.9 | -1.4 ± 7.7
6 | CNCC[C@H](Oc1cccc2ccccc12)c1cccs1 [Duloxetine] | 1.9 ± 5.4 | -14.2 ± 4.9 | 6.1 ± 7.4 | 12.6 ± 2.6 | 7.6 ± 6.5 | 11.9 ± 3.1
7 | CN(C)C(=O)C(CCN1CCC(O)(c2ccc(Cl)cc2)CC1)(c1ccccc1)c1ccccc1 [Loperamide] | 17.6 ± 1.6 | 1.4 ± 2.1 | 16.9 ± 2.3 | -3.6 ± 2.1 | 18.9 ± 0.2 | -2.7 ± 3.9
8 | CN(C)CCC=C1c2ccccc2CCc2ccccc21 [Amitriptyline] | 5.6 ± 2.9 | -13.4 ± 3 | 35.9 ± 3.6 | 26.9 ± 4.7 | 0.6 ± 1.7 | 29.7 ± 3.2
9 | CCOC(=O)[C@H](CCc1ccccc1)N[C@@H](C)C(=O)N1CCC[C@H]1C(=O)O [Enalapril] | 27.2 ± 2.1 | 5.3 ± 1.8 | 9.9 ± 8.3 | -1.5 ± 1.6 | 12.7 ± 4.6 | -9.5 ± 1.2
10 | CCC(C)(C)C(=O)O[C@H]1C[C@@H](C)C=C2C=C[C@H](C)[C@H](CC[C@@H]3C[C@@H](O)CC(=O)O3)[C@H]21 [Simvastatin] | -18.1 ± 15 | -4.2 ± 3.5 | -4.1 ± 0.6 | -10.5 ± 3.3 |  | 

Now from value to compound:

Row | inhibition at 20 µM [1] [%] | inhibition at 200 µM [1] [%] | inhibition at 20 µM [2] [%] | inhibition at 200 µM [2] [%] | inhibition at 20 µM [3] [%] | inhibition at 200 µM [3] [%] | Structure (SMILES)
11 | 4.2 ± 2 | -9.2 ± 1.2 | -1.3 ± 7.1 | 14.4 ± 6 | 4.3 ± 2 | 14 ± 0.9 | CC(CN1c2ccccc2Sc2ccccc21)N(C)C (stereo not shown) [Promethazine]
12 | 3.1 ± 6 | 9.9 ± 3.1 | 9.7 ± 4.1 | 6.2 ± 0.6 | 9.7 ± 4.1 | 9.6 ± 1.4 | C[C@H]1c2cccc(O)c2C(=O)C2=C(O)[C@]3(O)C(=O)C(C(N)=O)=C(O)[C@@H](N(C)C)[C@@H]3[C@@H](O)[C@@H]21 [Doxycycline]
13 | -17.2 ± 13.5 | -22.8 ± 2.2 | 0.7 ± 3.8 | -20.7 ± 2.9 | -5.4 ± 2.1 | 31.8 ± 4.3 | Cc1ccc(-c2ncc(Cl)cc2-c2ccc(S(C)(=O)=O)cc2)cn1 [Etorixocib]
14 | 8.1 ± 11.4 | 5.6 ± 3.7 | 24.6 ± 0.6 | -19.9 ± 4.4 | 8.5 ± 11.1 | -15 ± 1.6 | CC#C[C@]1(O)CC[C@H]2[C@@H]3CCC4=CC(=O)CCC4=C3[C@@H](c3ccc(N(C)C)cc3)C[C@@]21C [Mifepristone]
15 | 28.7 ± 4.6 | 3.1 ± 3.8 | 1.1 ± 4.5 | 2.7 ± 6 | 1.1 ± 4.5 | 5.8 ± 2.4 | CCOC(=O)[C@H](CCc1ccccc1)N[C@H]1CCc2ccccc2N(CC(=O)O)C1=O [Benazepril]
16 | -4.8 ± 2.1 | 0.2 ± 3.2 | 16.3 ± 6.6 | 13.1 ± 2 | 10.1 ± 2.9 | 8.9 ± 0.4 | CC(C)OC(=O)C(C)(C)Oc1ccc(C(=O)c2ccc(Cl)cc2)cc1 [Fenofibrate]
17 | -0.7 ± 3.1 | -37.6 ± 11.8 | -10.8 ± 2.3 | 8.3 ± 6.7 | -10.3 ± 2.1 | 11.6 ± 7.2 | CNCCCN1c2ccccc2CCc2ccccc21 [Desipramine]
18 | 0.1 ± 3.2 | 12.1 ± 5.1 | -19.1 ± 9.3 | -13.4 ± 4.9 | -19.3 ± 9.1 | -13.6 ± 4.6 | C[C@@H](O)[C@H]1C(=O)N2C(C(=O)O)=C(S[C@@H]3CN[C@H](C(=O)N(C)C)C3)[C@H](C)[C@H]12 [Meropenem]
19 | -4.5 ± 1.7 | -9.9 ± 3.1 | 16.7 ± 2.1 | 10.5 ± 0.9 | 15.2 ± 1.8 | 12.5 ± 0.3 | COc1ccnc(C[S+]([O-])c2nc3cc(OC(F)F)ccc3[nH]2)c1OC (stereo not shown) [Pantoprazole]
20 | -11.3 ± 8.3 | -33.5 ± 3.3 | 10.4 ± 4.4 | 31.7 ± 10.4 | -4.3 ± 4.6 | 31.4 ± 10.1 | Clc1ccccc1CN1CCc2sccc2C1 [Ticlopidine]
